# “Also recorded” adds a separate entry of the source.
# Columns and labels:
# rats [1] = assay: one-trial passive avoidance test (amnesia); assay type: in vivo, rat; conditions: for Amnestic Liability Index: ratio ED50 decreased motor activity / MED to produce amnesia
# Procedure: This effect can be studied in rats by the one-trial passive avoidance test. In this test an undrugged, naive rat is given an electric shock when it moves from the illuminated side to the darkened side of a two-compartment chamber. When tested for recall of this training 24 hours later, a placebo-injected animal will show excellent recall of the aversive training, and thus a high latency time for entering the darkened side.
# rats [2] = assay: potentiation of ETOH delivered 24 hours after dosing (hangover liability); assay type: in vivo, rat; conditions: for Hangover Liability Index: ETOH 24 hours after administration; for potentiation of ETOH delivered 24 hours after drug treatment: rat, in vivo
# Procedure: The important observation that Compound 1 causes very little potentiation of ETOH was extended by determining a Hangover Liability Index, the measure of the ability of the drug to potentiate ETOH 24 hours after administration (see Table 3 below). Sedative-hypnotic agents have been reported to produce drowsiness, confusion and other side effects in man on the day following the normal overnight use of these compounds.
# rats [3] = assay: motor activity in rats (activity meter); assay type: in vivo, rat; conditions: for ED50: Rattus norvegicus
# Procedure: (§1) The sedative effects of Compound 1 were measured in rats using a panel of standard tests which monitor the effects of drugs on motor activity, muscle relaxation and motor coordination.
# (§2) This latter compound is well characterized as a competitive antagonist at the benzodiazepine site, which can reverse the effects of benzodiazepine site agonists.
# (§3) Administration of benzodiazopines to animals and to man for periods of several weeks can result in a tolerance to their sedative effects (Finkle, supra). In order to assess tolerance to Compound 1, its effects were tested on rat motor activity, and on grip strength using the inclined screen procedures after single and repeated administrations. The results of these studies were then compared to results gathered from rats which had received similar dosings of triazolam.
# GABAA receptor = assay: [35S]TBPS binding to rat cortex membranes
# Text: TBPS binds to a site on the GABAA receptor which is closely associated with the chloride channel, and an increase in TBPS binding correlates with increased activation of the chloride conductance (i.e., enhanced GABAA receptor function). Compounds which act as agonists at the benzodiazepine site increase TBPS binding to varying degrees, which reflects their relative efficacies.
# rats [4] = assay: potentiation of ETOH-induced loss of righting response, ETOH 60 minutes after dosing; assay type: in vivo, rat; conditions: for ETOH Liability Index: ratio ED50 motor activity / MED ETOH potentiation; for Minimum Effective Dose (MED mg/kg) to potentiate ETOH-induced loss of righting response: rats, ETOH 3.2 g/kg i.p. 60 minutes after dosing
# Text: Benzodiazepines and barbiturate sedative-hypnotics produce a profound potentiation of the deleterious effects of ethanol (ETOH) in man and animals (Ayd, supra). Intraperitoneal ETOH alone, when administered to rats at a dose of 3.2 g/kg, produces a reliable loss of righting response. The loss of righting response caused by ETOH can be used to measure the possible interaction of ETOH with test drugs. This is done by delivering the ETOH and a test drug sequentially, and determining the Minimum Effective Dose of test drug which will potentiate the time that ETOH produces the loss of righting response. The ETOH Liability Index for a drug can be determined by calculating the ratio of (1) the ED50 of the test drug to decrease motor activity (a measure of sedation) to (2) the Minimum Effective Dose (MED) of the test drug to potentiate the time for ETOH-induced loss of righting response.
# ETOH Liability Indices were determined experimentally for Compound 1, flurazepam and triazolam by intraperitoneally delivering ETOH (3.2 g/kg) to the animals 60 minutes after dosing with each test drug (see Table 2 below).
# rats [5] = assay: panel of standard tests for sedative effects in rats (motor activity, muscle relaxation, motor coordination); assay type: in vivo, rat
# Procedure: as §1
# [6] = test system: benzodiazepine site on the GABAA receptor; assay: [3H]flunitrazepam binding to rat cortex; conditions: for IC50: rat cortex, read-out: IC50, displacement of [3H]flunitrazepam binding
# rats [7] = assay: Thirsty Rat Conflict Procedure; assay type: in vivo
# Procedure: The Thirsty Rat Conflict Procedure involves rats which are deprived of water for 48 hours. They are then given brief electrical shocks following each 20th lick of a drinking tube. These shocks create a “conflict situation” which results in a marked decrease in licking (drinking) behavior.
# rats [8] = assay: inclined screen grip strength test; assay type: in vivo, rat; conditions: for ED50: Rattus norvegicus
# Procedure: as §1, §2, §3
# squirrel monkeys [9] = assay: EEG studies in squirrel monkeys; assay type: in vivo, squirrel monkey; conditions: 4.0 mg/kg i.m.
# Procedure: (§4) Compound 1 produced dose-related increases in sleep duration in rats, with a minimum effective dose of 2.0 mg/kg.
# rats [10] = assay: sleep duration in rats; assay type: in vivo, rat
# Procedure: as §4
# squirrel monkeys [11] = assay: Squirrel Monkey Conflict Procedure; assay type: in vivo
# Procedure: The Squirrel Monkey Conflict Procedure involves monkeys which are initially trained to press a bar to receive a food reward. In later sessions the animals were given occasional electrical shocks following randomly selected bar presses. These animals responded to the conflict situation by substantially lowering their levels of bar-pressing activity. […] This increase in conflict response reflects the anxiolytic effects of the drug. The increase drops off at 4.0 mg/kg, which may be due to a subtle sedative effect of the compound which begins developing in this dose range. The inverted-U shaped dose-response function described above for Compound 1 is consistent with the profile of other sedative-hypnotic drugs of the benzodiazepine-ligand class, and reflects the sedative properties of these drugs (Cook and Sepinwall, supra).
# squirrel monkeys [12] = assay: vigilance test (reaction time) in squirrel monkeys; assay type: in vivo, squirrel monkey; conditions: >1 mg/kg orally one hour before testing
# Text: Vigilance tests based on reaction time measurements in monkeys measure drug induced slowing of responses and decreases in attentional or cognitive processes. Squirrel monkeys were trained to respond to a visual trigger by bar pressing for a food reward.
# rats [13] = assay: rod walking test; assay type: in vivo; conditions: Rattus norvegicus, oral
# Procedure: as §1
# [14] = molecular target: benzodiazepine site on the GABAA receptor; assay: [3H]flunitrazepam binding to rat cerebellum membranes; conditions: read-out: IC50, inhibition of [3H]flunitrazepam binding
# rats [15] = assay: prevention of chemically induced convulsions in rats; assay type: in vivo, rat; conditions: for ED50: Rattus norvegicus
# Text: Benzodiazepine sedative-hypnotic agents are potent anticonvulsants in animals, and are used clinically for the treatment of status epilepticus. Oral doses of Compound 1 were effective in blocking convulsions in rats which resulted from injections of agents know to induce convulsion (see Table 1 below).
# rats [16] = assay: prevention of electrical shock induced convulsions; assay type: in vivo; conditions: Rattus norvegicus; oral; 150 mA, 60 Hz transcorneal shock for 0.3 seconds; read-out: ED50 blocking electrical shock induced convulsions
# [17] = Table 2, read-out: Decrease in Motor Activity (ED50 mg/kg)
# [18] = fourth day of daily dosing, read-out: ED50 motor activity, tolerance study
# [19] = single administration, read-out: ED50 motor activity, tolerance study
# [20] = inclined screen, fourth day of daily dosing, read-out: ED50 grip strength, tolerance study
# [21] = inclined screen, single administration, read-out: ED50 grip strength, tolerance study
# [22] = 3.1 mg/kg Compound 1 p.o. + 10 mg/kg Ro 15-1788 i.p.
structure (smiles),measurement,setting,value
CCN(CC)CCN1C(=O)CN=C(c2ccccc2F)c2cc(Cl)ccc21 [flurazepam],Amnestic Liability Index,rats [1],3.1
same,Hangover Liability Index,rats [2],2.5
same,potentiation of ETOH delivered 24 hours after drug treatment,rats [2],significantly potentiated
same,ED50,rats [3]; [17],24.9 mg/kg
same,"Emax, maximum enhancement of TBPS binding",GABAA receptor,71%
same,ETOH Liability Index,rats [4],4.98
same,Minimum Effective Dose (MED mg/kg) to potentiate ETOH-induced loss of righting response,rats [4],5.0 mg/kg
CC(=O)Nc1cccc(-c2ccnc3c(C(=O)c4cccs4)cnn23)c1 [desmethyl metabolite of Compound 1],"Emax, maximum enhancement of TBPS binding",GABAA receptor,28%
same,sedative effects in the test panel,"rats [5]; motor activity, inclined screen, rod walking",did not show sedative effects
same,times less potent than Compound 1 in displacing radiolabeled flunitrazepam,[6],approximately 74 times
same,IC50,[6],725 nM
same,effect in thirsty rat conflict model,rats [7]; 12 mg/kg,without effect
"Cc1nnc2n1-c1ccc(Cl)cc1C(c1ccccc1Cl)=NC2 [triazolam, reference compound]",Amnestic Liability Index,rats [1],1.6
same,Hangover Liability Index,rats [2],10
same,potentiation of ETOH delivered 24 hours after drug treatment,rats [2],significantly potentiated
same,ED50,rats [3]; [17],1.6 mg/kg
same,ED50,rats [3]; [18],> 100 mg/kg
same,ED50,rats [3]; [19],3.9 mg/kg
same,"Emax, maximum enhancement of TBPS binding",GABAA receptor,78%
same,ED50,rats [8]; [20],> 100 mg/kg
same,ED50,rats [8]; [21],5.1 mg/kg
same,IC50,[6],0.5 nM
same,ETOH Liability Index,rats [4],20
same,Minimum Effective Dose (MED mg/kg) to potentiate ETOH-induced loss of righting response,rats [4],.08 mg/kg
CN1C(=O)CN=C(c2ccccc2F)c2cc([N+](=O)[O-])ccc21 [flunitrazepam],IC50,[6],114 nM
"CC(=O)N(C)c1cccc(-c2ccnc3c(C(=O)c4cccs4)cnn23)c1 [Compound 1, N-methyl-N-(3-{3-[2-thienylcarbonyl]-pyrazol-[1,5-α]-pyrimidin-7-yl}phenyl)acetamide]",changes in EEG power spectrum,squirrel monkeys [9],a relative decrease in alpha activity and an increase in beta activity
same,amnestic effect,"rats [1]; rat, in vivo",small amnestic effect compared to triazolam or flurazepam
same,Amnestic Liability Index,rats [1],0.15
same,Hangover Liability Index,rats [2],0.0
same,potentiation of ETOH delivered 24 hours after drug treatment,rats [2],failed to potentiate ETOH
same,effect on motor/locomotor activity with Ro 15-1788 co-treatment,rats [3]; [22],antagonize the decreases in motor activity; also recorded: reversed
same,ED50,rats [3]; [17],1.2 mg/kg
same,ED50,rats [3]; [18],14.5 mg/kg
same,ED50,"rats [3]; po, activity meter, read-out: ED50 for decrease in motor activity",1.2 mg/kg
same,ED50,rats [3]; [19],2.4 mg/kg
same,minimum effective dose for increase in sleep duration,rats [10],2.0 mg/kg
same,"Emax, maximum enhancement of TBPS binding",GABAA receptor,65%
same,increase in conflict response,squirrel monkeys [11]; 4.0 mg/kg,drops off
same,increase above baseline responses to conflict situation,squirrel monkeys [11]; oral 2.0 mg/kg,100%
same,effect on grip strength (inclined screen) with Ro 15-1788 co-treatment,rats [8]; [22],reverse the impairment of grip strength; also recorded: reversed
same,ED50,rats [8]; [20],18.3 mg/kg
same,ED50,rats [8]; [21],2.6 mg/kg
same,ED50,"rats [8]; po, inclined screen grip strength test, read-out: ED50 for muscle relaxant effects",2.7 mg/kg
same,effect on accuracy and latency of responses,squirrel monkeys [12],dose related decrements in both the accuracy and latency of the responses
same,sedative potency relative to reference drugs,rats [5],approximately equipotent with triazolam and more potent than zolpidem and flurazepam
same,IC50,[6],9.8 nM
same,ED50,rats [13],3 mg/kg
same,increase in number of shocks accepted vs vehicle control,rats [7]; oral 0.3 mg/kg,100%
same,IC50,[14],2 nM
same,ED50,"rats [15]; rats, oral, inducer Bicuculline (iv), read-out: ED50 preventing convulsion",2.3 mg/kg
same,ED50,"rats [15]; rats, oral, inducer Pentylenetetrazol (iv), read-out: ED50 preventing convulsion",2.5 mg/kg
same,ED50,"rats [15]; read-out: ED50 preventing convulsion, rats, oral, inducer Picrotoxin (sc)",1.9 mg/kg
same,ED50,"rats [15]; read-out: ED50 preventing convulsion, rats, oral, inducer Strychnine (sc)",4.4 mg/kg
same,anticonvulsant potency relative to reference drugs,rats [15]; all five methods (four chemical inducers and electrical shock),less than that of triazolam and greater than that of flurazepam
same,times less ETOH liability compared to triazolam and flurazepam,"rats [4]; rat, in vivo, oral, 60 min",≥ 10 times
same,ETOH Liability Index,rats [4],0.48
same,Minimum Effective Dose (MED mg/kg) to potentiate ETOH-induced loss of righting response,rats [4],2.5 mg/kg
same,ED50,rats [16],5.5 mg/kg
CN1C(=O)CN=C(c2ccccc2)c2cc(Cl)ccc21 [diazepam],"Emax, maximum enhancement of TBPS binding",GABAA receptor,55%
same,IC50,[6],17 nM
Cc1ccc(-c2nc3ccc(C)cn3c2CC(=O)N(C)C)cc1 [zolpidem],IC50,[6],26 nM
